Assay results as given in patent publication US20250197428A1, “INHIBITORS OF KIF18A AND USES THEREOF” (ACCENT THERAPEUTICS, INC., priority 2022, published 2025).
Read-outs that look alike come from different tables or passages of the source.

Assays:
KIF18A = KIF18A (Homo sapiens (Human), UniProt Q8NI77); experiment: KIF18A Biochemical Assay (ATPase, ADP-Glo)
OVCAR-3 cells = experiment: In vitro anti-proliferative activity assay in cancer cell line OVCAR-3 (CellTiter-Glo, 4- or 7-day); format: cell-based; details: Homo sapiens, read-out: OVCAR-3 cellular antiproliferation assay IC50

KIF18A, sequence (Q8NI77 1-367): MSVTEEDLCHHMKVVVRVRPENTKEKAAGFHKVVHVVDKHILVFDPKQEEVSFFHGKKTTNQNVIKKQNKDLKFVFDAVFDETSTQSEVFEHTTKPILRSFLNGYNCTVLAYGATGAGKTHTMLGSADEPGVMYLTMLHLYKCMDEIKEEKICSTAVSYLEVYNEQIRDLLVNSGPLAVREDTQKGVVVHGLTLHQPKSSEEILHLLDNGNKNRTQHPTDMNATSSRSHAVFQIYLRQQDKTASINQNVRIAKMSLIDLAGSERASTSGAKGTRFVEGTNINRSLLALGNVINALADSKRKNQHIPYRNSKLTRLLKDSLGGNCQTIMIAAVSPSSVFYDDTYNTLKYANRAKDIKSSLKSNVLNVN
KIF18A, sequence (P02550 whole entry partner): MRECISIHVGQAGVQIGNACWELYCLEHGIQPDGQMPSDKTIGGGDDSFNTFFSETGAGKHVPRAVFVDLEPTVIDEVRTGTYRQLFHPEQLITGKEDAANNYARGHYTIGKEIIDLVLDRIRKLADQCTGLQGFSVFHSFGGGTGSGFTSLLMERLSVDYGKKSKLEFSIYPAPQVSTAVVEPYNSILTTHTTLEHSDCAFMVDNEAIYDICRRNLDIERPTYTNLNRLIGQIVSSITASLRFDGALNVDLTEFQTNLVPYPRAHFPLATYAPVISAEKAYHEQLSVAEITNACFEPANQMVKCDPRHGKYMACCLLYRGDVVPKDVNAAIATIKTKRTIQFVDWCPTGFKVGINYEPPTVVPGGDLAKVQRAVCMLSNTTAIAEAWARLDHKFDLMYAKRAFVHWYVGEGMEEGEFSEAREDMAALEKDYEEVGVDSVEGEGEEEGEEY
KIF18A, sequence (P02554 whole entry partner): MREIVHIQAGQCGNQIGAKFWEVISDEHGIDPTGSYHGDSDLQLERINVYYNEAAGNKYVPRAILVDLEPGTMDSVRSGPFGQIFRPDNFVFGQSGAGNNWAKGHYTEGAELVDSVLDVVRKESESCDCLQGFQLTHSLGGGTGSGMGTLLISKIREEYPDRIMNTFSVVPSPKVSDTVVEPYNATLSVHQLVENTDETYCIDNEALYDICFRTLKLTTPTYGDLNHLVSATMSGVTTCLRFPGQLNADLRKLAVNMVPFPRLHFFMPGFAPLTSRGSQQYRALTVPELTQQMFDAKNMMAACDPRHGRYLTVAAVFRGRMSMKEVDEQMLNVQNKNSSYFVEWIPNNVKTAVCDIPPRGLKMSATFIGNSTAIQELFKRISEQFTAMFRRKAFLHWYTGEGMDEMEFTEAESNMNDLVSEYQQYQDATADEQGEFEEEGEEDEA

Row | Structure (SMILES) | IC50 (KIF18A) | IC50 (OVCAR-3 cells; OVCAR-3, 96 h, 4-day assay) | IC50 (OVCAR-3 cells; OVCAR-3, 168 h, 7-day assay)
1 | O=C(Nc1cccc(S(=O)(=O)N2CCC(F)(F)CC2)c1)c1cccnc1N1CCC2CC2C1 (centres unmarked) [Example 44] | > 1000 nM | – | –
2 | CC12CCN(c3ncccc3C(=O)Nc3cccc(S(=O)(=O)N4CCC(F)(F)CC4)c3)CC1C2 (centres unmarked) [Example 45] | – | > 1000 nM | –
3 | C[C@]12CCN(c3ncccc3C(=O)Nc3cccc(S(=O)(=O)N4CCC(F)(F)CC4)c3)C[C@H]1C2 [Example 46] | – | > 1000 nM | –
4 | C[C@@]12CCN(c3ncccc3C(=O)Nc3cccc(S(=O)(=O)N4CCC(F)(F)CC4)c3)C[C@@H]1C2 [Example 47] | > 1000 nM | – | –
5 | Cc1cc(NC(=O)c2ccc(S(=O)(=O)NCCO)cc2N2CC[C@]3(C)C[C@@H]3C2)nc(N2CCC(F)(F)CC2)n1 [Example 52] | < 100 nM | – | 100 to 500 nM
6 | Cc1cc(NC(=O)c2ccc(S(=O)(=O)NCCO)cc2N2CC[C@@]3(C)C[C@H]3C2)nc(N2CCC(F)(F)CC2)n1 [Example 53] | < 100 nM | – | 100 to 500 nM
7 | Cc1cc(NC(=O)c2ccc(NS(C)(=O)=O)cc2N2CC[C@@]3(C(F)F)C[C@H]3C2)nc(N2CCC(F)(F)CC2)n1 [Example 55] | < 100 nM | – | 500 to 1000 nM
8 | Cc1cc(NC(=O)c2ccc(NS(=O)(=O)NCCO)cc2N2CC[C@@]3(C(F)F)C[C@H]3C2)nc(N2CCC(F)(F)CC2)n1 [Example 57] | 100 to 500 nM | – | > 1000 nM
9 | Cc1cc(NC(=O)c2ccc(NS(=O)(=O)CCO)cc2N2CC[C@@]3(C(F)F)C[C@H]3C2)nc(N2CCC(F)(F)CC2)n1 [Example 59] | < 100 nM | – | 100 to 500 nM
10 | O=C(Nc1ccnc(N2CCC(F)(F)CC2)n1)c1ccc(NS(=O)(=O)CCO)cc1N1CC[C@@]2(C(F)F)C[C@H]2C1 [Example 61] | < 100 nM | – | 100 to 500 nM
11 | Cc1cc(NC(=O)c2ccc(NS(=O)(=O)CCO)cc2N2CC[C@]3(C)C[C@@H]3C2)nc(N2CCC(F)(F)CC2)n1 [Example 62] | – | – | < 100 nM
12 | Cc1cc(NC(=O)c2ccc(NS(=O)(=O)CCO)cc2N2CC[C@@]3(C)C[C@H]3C2)nc(N2CCC(F)(F)CC2)n1 [Example 63] | – | – | < 100 nM
13 | O=C(Nc1cccc(N2CCC(F)(F)CC2)n1)c1ccc(NS(=O)(=O)CCO)cc1N1CC[C@]2(C(F)F)C[C@@H]2C1 [Example 64] | < 100 nM | – | < 100 nM
14 | Cc1cc(NC(=O)c2ccc(NS(=O)(=O)CCO)cc2N2CC[C@]3(C(F)F)C[C@@H]3C2)nc(N2CCC(F)(F)CC2)c1 [Example 65] | < 100 nM | – | < 100 nM
15 | Cc1cc(NC(=O)c2ccc(NS(=O)(=O)CCO)cc2N2CC[C@]3(C(F)F)C[C@@H]3C2)nc(OC[C@H](O)C(F)(F)F)n1 [Example 67] | > 1000 nM | – | > 1000 nM
16 | Cc1cc(NC(=O)c2ccc(NS(=O)(=O)CCO)cc2N2CC[C@@]3(C(F)F)C[C@H]3C2)nc(OC[C@H](O)C(F)(F)F)n1 [Example 68] | > 1000 nM | – | > 1000 nM
17 | O=C(Nc1ccnc(N2CCC(F)(F)CC2)n1)c1c(F)cc(NS(=O)(=O)CCO)cc1N1CC[C@]2(C(F)F)C[C@@H]2C1 [Example 69] | < 100 nM | – | > 1000 nM
18 | Cc1cc(NC(=O)c2c(F)cc(NS(=O)(=O)CCO)cc2N2CC[C@]3(C(F)F)C[C@@H]3C2)nc(N2CCC(F)(F)CC2)n1 [Example 71] | 100 to 500 nM | – | > 1000 nM
19 | Cc1cc(NC(=O)c2ccc(NS(=O)(=O)CCO)cc2N2CC[C@]3(C(F)F)C[C@@H]3C2)nc(OC[C@@H](O)C(F)(F)F)n1 [Example 73] | > 1000 nM | – | > 1000 nM
20 | Cc1cc(NC(=O)c2ccc(NS(=O)(=O)CCO)cc2N2CC[C@@]3(C(F)F)C[C@H]3C2)nc(OC[C@@H](O)C(F)(F)F)n1 [Example 74] | > 1000 nM | – | > 1000 nM
21 | O=C(Nc1ccnc(C2CCC(F)(F)CC2)n1)c1ccc(NS(=O)(=O)CCO)cc1N1CC[C@@]2(C(F)F)C[C@H]2C1 [Example 76] | < 100 nM | – | 100 to 500 nM
22 | C[Si]1(C)CCN(c2cc(NS(=O)(=O)CCO)ccc2C(=O)Nc2ccnc(S(=O)(=O)C3CCCC3)n2)CC1 [Example 89] | – | – | 100 to 500 nM
23 | C[C@H]1CN(c2nccc(C(=O)Nc3ccc(NS(=O)(=O)CCO)cc3N3CC[Si](C)(C)CC3)n2)CCO1 [Example 91] | – | – | 100 to 500 nM
24 | CC[Si]1(CC)CCN(c2ncccc2C(=O)Nc2cccc(S(=O)(=O)N3CCC(F)(F)CC3)c2)CC1 [Example 92] | – | – | > 1000 nM
25 | C[Si]1(C)CCN(c2ncccc2C(=O)Nc2cccc(S(=O)(=O)N3CCC(F)(F)CC3)c2)C1 [Example 93] | – | – | > 1000 nM
26 | C[Si]1(C)CCN(c2cc(NS(=O)(=O)CCO)c(F)cc2NC(=O)c2cccc(N3CCC(F)(F)CC3)n2)CC1 [Example 95] | – | < 100 nM | –
